We go through one molecule from patent US20060025448A1, “Hair growth stimulators” (CADILA HEALTHCARE LIMITED, priority 2004, published 2006).

The subject of one assay is male C57BL/6J mice. Kind of assay: Effect on hair growth (bald area) in high-fat diet fed male C57BL/6J mice. The settings on record: 10 mg/kg orally; for growth of body hair (in words): high-fat diet fed male C57BL/6 mice, 28 days. In kind it is in vivo. The procedure: (§1) The C57BL/6 mice were housed on a lightdark cycle in a room with temperature (22±2° C.) and humidity control. They were fed either a high-fat diet (HFD) (49% fat, 18% protein, 33% carbohydrate) or a standard mouse diet (STD) (8% fat, 19% protein, 73% carbohydrate). Six-week-old C57BL/6J male mice were given HFD or STD diets for 17 wks before drug treatment started. […] After this, mice were weighed and treated as per the following three groups, while the diet treatment continued.
(§2) High-fat diet fed & vehicle treated (HFD-V), • High-fat diet fed & treated with 10 mg/kg Compound 2 (HFD-R 10 mg) • High-fat diet fed & treated with 10 mg/kg Compound 1 (HD-ZY 10 mg) • Compound 1 and Compound 2 were administered orally in distilled water with 0.1% Tween 80 one hour before the onset of the dark phase.
(§3) The animals were observed daily. Body weights were recorded daily, and the animals were photographed on 28th day on the back, The results are mentioned in Table 1 and Table 2.

A short description of assay [1]: Effect on body weight in high-fat diet fed male C57BL/6J mice. Format: in vivo. As to conditions: for effect on body weight (in words): high-fat diet fed male C57BL/6 mice. As to the method:
as §1, §2, §3

As for `Cc1c(C(=O)NN2CCCCC2)nn(-c2ccc(Cl)cc2Cl)c1-c1ccc(Cl)s1.Cl` [Compound 1, Hydrochloride salt of 5-(5-Chloro-thiophen-2-yl)-1-(2,4-dichloro-phenyl)-4-methyl-1H-pyrazole-3-caxboxylic acid piperidin-1-ylamide], in the assay with male C57BL/6J mice (high-fat diet fed male C57BL/6J mice, after 28th day of dosing, n = 6), the “bald area (where hair growth or pigmentation has not appeared), Area (Mean ± Standard Error Mean)” value is 0.011 ± 0.223 cm^2. For the same molecule, the “growth of body hair (in words)” value in the assay on male C57BL/6J mice (10 mg/kg) is “significantly enhanced the growth of body hair”; in the assay with male C57BL/6J mice (listed as compound 1, 10 mg/kg) it was “able to stimulate hair growth”. Also, in assay [1] (high-fat diet fed male C57BL/6J mice, 10 mg/kg orally, 28 days, n = 6), the “Change in Body Weight in 28 days versus Day 0” value was -1.7 ± 0.5 g. Besides, the “Body Weight on Day 28” value in assay [1] (high-fat diet fed male C57BL/6J mice, 10 mg/kg orally, Day 28, n = 6) is given as 26.9 ± 1.1 g. For the same molecule, in assay [1] (high-fat diet fed male C57BL/6J mice, 10 mg/kg orally, versus vehicle group, n = 6), the “Change in Body Weight versus HFD-V” value is -3.3 ± 1.8 g. Besides, in assay [1] (high-fat diet fed male C57BL/6J mice, Day 0 (baseline before treatment), n = 6), the “Body Weight on Day 0” value came to 29.2 ± 1.1 g. The “effect on body weight (in words)” value is on record as “decrease in body weight” in assay [1] (10 mg/kg orally, 28 days, 10 mg/kg) and “decreasing body weight” in assay [1] (10 mg/kg orally, 28 days, listed as compound 1, 10 mg/kg).
